Columns and labels:
[1] = test system: rat dorsal root ganglion neurons; test: Patch clamp (current clamp) of acid-induced action potential generation in rat dorsal root ganglion neurons in primary culture; type: cell-based; conditions: 1 μM, current-clamp mode, n=3
Experimental: The acid-evoked action potentials were recorded in the presence and absence of Compound A (1 μM) or Compound H (1 μM) using the whole cell configuration of the patch clamp method (current clamp mode).
Sensory neurons can be isolated and cultured in vitro from different animal species. The most widely used protocols use sensory neurons isolated from neonatal (Eckert, et al. (1997) J Neurosci Methods 77:183-190) and embryonic (Vasko, et al. (1994) J Neurosci 14:4987-4997) rat. […] Electrophysiology is performed similarly as described above in Example 2. […] In the current-clamp mode, change in the trans-membrane potential are recorded. Under acidic conditions (e.g., pH 6.5) the membrane depolarizes, leading to the firing of action potentials, as shown in FIGS. 7A and 7B.

[2] = test system: CFA-induced inflammatory pain; test: CFA model of chronic inflammatory pain, hindpaw weight bearing (Incapacitance Tester); type: in vivo, rat; conditions: 24 h after CFA, 60 min after drug injection, n=7-8
Experimental: Rats (body weight 260-300 g) were given a s.c. injection of CFA (50% in saline, 100 μl, Sigma) into the plantar surface of the hindpaw under brief halothane anaesthesia. After 24 h, they were then tested for hindpaw weight bearing responses, as assessed using an Incapacitance Tester (Linton Instrumentation, UK), (Zhu et al., 2005). The instrument incorporates a dual channel scale that separately measures the weight of the animal distributed to each hindpaw. While normal rats distribute their body weight equally between the two hindpaws (50-50), the discrepancy of weight distribution between an injured and non-injured paw is a natural reflection of the discomfort level in the injured paw (nocifensive behavior). The rats were placed in the plastic chamber designed so that each hindpaw rested on a separate transducer pad. […] For each rat, three readings from each paw were taken and then averaged. Side-to-side weight bearing difference was calculated as the average of the absolute value of the difference between two hindpaws from three trials (right paw reading-left paw reading).
Hindpaw weight bearing responses were measured in male Sprague-Dawley rats for 2-3 days prior to being given a hindpaw injection of CFA. Twenty-four hours later baseline responses were measured and rats were then administered Compound A (5, 10 and 20 mg/kg, i.p.), Compound H (10, 30 and 60 mg/kg) and morphine (3, 6 and 10 mg/kg). Weight bearing responses were then measured at 30, 60 and 120 min after drug or vehicle injection (data shown at 60 min.). […] Data are expressed as mean +/−SEM. *P<0.05, **P<0.01, *** P<0.001 vs baseline; +++: P<0.001 vs vehicle. All groups n=7-8.

formalin-induced pain = test: Formalin test, model of acute tonic pain; type: in vivo, rat
Experimental: Male Sprague-Dawley rats are housed together in groups of three animals under standard conditions with unrestricted access to food and water. All experiments are conducted according to the ethical guidelines for investigations of experimental pain in conscious animals (Zimmerman, 1983)
Assessment of formalin-induced flinching behavior in normal, uninjured rats (body weight 150-180 g) was made with the use of an Automated Nociception Analyser (University of California, San Diego, USA). Briefly, this involved placing a small C-shaped metal band (10 mm wide×27 mm long) on the hindpaw of the rat to be tested. The rats (four rats were included in each testing session) were then placed in a cylindrical plexiglass observation chamber (diameter 30.5 cm and height 15 cm) for 20 min for adaptation purposes prior to being administered drug or vehicle according to the experimental paradigm being followed. After adaptation, individual rats were then gently restrained and formalin (5% in saline, 50 μl, s.c.) was injected into the plantar surface of the hindpaw using a 27G needle. Rats were then returned to their separate observation chambers, each of which were in turn situated upon an enclosed detection device consisting of two electromagnetic coils designed to produce an electromagnetic field in which movement of the metal band could be detected. The analogue signal was then digitised and a software algorithm (LabView) applied to enable discrimination of flinching behaviour from other paw movements. A sampling interval of 1 min was used and on the basis of the resulting response patterns 5 phases of nociceptive behaviour were identified and scored: first phase (P1; 0-5 min), interphase (Int; 6-15 min), second phase (P2; […]), phase 2A (P2A; 16-40 min) and phase 2B (P2B; 41-60 min).
Nociceptive behavior was also determined manually every 5 min by measuring the amount of time spent in each of four behavioral categories: 0, treatment of the injected hindpaw is indistinguishable from that of the contralateral paw; 1, the injected paw has little or no weight placed on it; 2, the injected paw is elevated and is not in contact with any surface; 3, the injected paw is licked, bitten, or shaken. A weighted nociceptive score, ranging from 0 to 3 was calculated by multiplying the time spent in each category by the category weight, summing these products, and dividing by the total time for each 5 min block of time. (Coderre et al., Pain 1993; 54: 43). On the basis of the resulting response patterns, […] of nociceptive behavior were identified and scored: first phase (P1; 0-5 min), interphase (Int; 6-15 min), second phase (P2; […]), phase 2A (P2A; 16-40 min) and phase 2B (P2B; 41-60 min). […]

| SMILES | effect on acid-induced membrane depolarization and action potential firing [1] | CFA-induced change in hindpaw weight bearing compared with vehicle [2] | pain intensity as evaluated by the flinching behavior (formalin-induced pain; Automated Nociception Analyser, n=6-8) | ED50 (formalin-induced pain; Rattus norvegicus, ip, i.p. 30 min before formalin, phase 2 (phase IIa), rat, read-out: ED50, total pain score in the formalin test) [mg/kg] | total pain score behavior (flinching, licking, biting) (formalin-induced pain; i.p. 30 min before formalin, phase 1 and 2, n=6-8) |
| --- | --- | --- | --- | --- | --- |
| CCN1CCc2c(-c3ccccc3)cc3c(c2C1)NC(=O)/C3=N/O [Compound H, 5-phenyl-6,7,8,9-tetrahydro-3-(hydroxyimino)-8-ethyl-1H-pyrrolo[3,2-h]isoquinoline-2(3H)-one] | inhibit the acid-induced membrane depolarization and reduces the ensuing rate of action potential firing | marked dose-dependent attenuation in the CFA-induced change in weight bearing | dose-dependent reduction of the pain intensity |  |  |
| COc1ccc(F)cc1-c1cc2c(c3c1CCN(C)C3)NC(=O)/C2=N/O [Compound A, 5-(5-fluoro-2-methoxyphenyl)-6,7,8,9-tetrahydro-3-(hydroxyimino)-8-methyl-1H-pyrrolo[3,2-h]isoquinoline-2(3H)-one] | inhibit the acid-induced membrane depolarization and reduces the ensuing rate of action potential firing | marked dose-dependent attenuation in the CFA-induced change in weight bearing |  | ~12 | reduce the total pain score behavior |

— patent US7718641B2, “Pyrrolo [3,4-H] isoquinoline compounds and methods for modulating gated ion channels” (Aros Pharma ApS, priority 2005, dated 2010)
